In article PMC10108266, “Pharmacokinetic characteristics of golidocitinib, a highly selective JAK1 inhibitor, in healthy adult participants” (Frontiers in Immunology, 2023):
Read-outs that look alike come from different tables or passages of the source.

Key:
Solubility in vitro = type: physicochemical
[1] = JACKPOT2 multiple-ascending-dose plasma PK (once daily, 14 days); type: in vivo, human; conditions: for Cmax / AUC(0-t) / Tmax: human, plasma, oral; for Cmax / AUC(0-t): geometric mean (CV%); for AUC(0-t): read-out: AUC0-24h; for Tmax: median (min, max)
Procedure: A total of 42 and 24 healthy participants were enrolled in part A and part B, respectively. In part A, a total of 30 participants were randomized into 5 SAD cohorts (n = 6 per cohort) and received a single dose of golidocitinib at different dose levels or a matching placebo in a 4:2 ratio. In the food effect cohort, a total of 12 participants were enrolled and received the study drug under fasted or fed conditions, with a sequential design. The 50 mg dose was selected based on available safety data after the completion of the SAD cohorts, and also on the outcomes from PK/PD modeling for potential efficacious dose for autoimmune disease. On Day 1, participants took a single dose of golidocitinib under fast condition. After a 14-day wash-out period, on Day 15, participants received another single dose of golidocitinib immediately after a standard high-fat meal. Food recipes and contents are consistent with that described in FDA Guidance for Food-Effect Bioavailability studies ([10]). For the fed condition, keeping fasted for at least 10 hours, participants started ingestion of high-fat meal 30 minutes prior to administration of golidocitinib. They had to finish the meal within 30 minutes or less, and no food was allowed for at least 4 hours post-dose. In part B, a total of 24 participants were randomized into 3 MAD cohorts, with 8 in each cohort (active:placebo = 6:2). In these cohorts, participants received golidocitinib at different dose levels or placebo once daily dosing for 14 days. Dose escalation was based on available PK and safety data in the previous cohorts.
(§1) In the SAD cohorts, serial blood samples were obtained on Day 1 at pre-dose, and at 0.5, 1, 1.5, 2, 3, 4, 6, 10, 14, 24 (Day 2), 48 (Day 3), 72 (Day 4), 120 (Day 6), 168 (Day 8) and 216 (Day 10) hours post-dose for plasma PK analysis. A similar sampling schedule was undertaken for the MAD cohorts on Day 1 and Day 14, with additional trough samples obtained on Days 5, Day 8, and Day 11. In the MAD cohorts, urine samples were collected on Day 14 during the collection intervals of 0-4, 4-10, and 10-24 hours following the last dose for urine PK analysis. Plasma and urine samples were analyzed by Frontage Laboratories Inc. (New Jersey, USA) using a validated LC/MS/MS bioanalytical method to determine golidocitinib concentrations. Cross validation in plasma was successful between Frontage Laboratories Inc. (New Jersey, USA) and Frontage Laboratories Inc. (Shanghai) using clinical samples and spiked quality control samples.
Non-compartmental PK analysis for golidocitinib concentrations was performed using Phoenix WinNonlin (Certara USA Inc., version 8.1).
Dose proportionality was concluded if the 90% confidence interval for the ratio of dose-normalized, geometric mean values (Rdnm) was contained completely within the range of 0.8 - 1.25 ([11], [12]).

[2] = JACKPOT2 MAD urinary PK (Day 14); type: in vivo, human; conditions: for CLtotal: CL/F * F (0.7 from PBPK model); for Fe0-t: CLr/CLtotal; for Ae0-t: urine 0-24 hour on Day 14; for CL renal: human, oral
Description: as §1
The mean (SD) amount of golidocitinib excreted in the urine over the collection period and renal clearance are presented in Table 2B . The average amount of golidocitinib excreted in the urine increased in an approximately dose proportional manner from 25 mg to 100 mg. […] The renal excretion fraction (Fe0-t) is helpful to compare the renal clearance (CLr) with total clearance (CLtotal) and determine the contribution of renal clearance in the drug elimination. It was calculated by the equation Fe0-t = CLr/CLtotal. The CL/F values were obtained from the two Phase I studies after the oral administration. Since the pharmacokinetics of golidocitinib after intravenous injection was not studied, the bioavailability value (F) was calculated by physiologically based pharmacokinetic (PBPK) model that incorporated compound specific information and independent prior knowledge on the physiology and biology at the organism.

[3] = 25 mg, 25 mg once daily, Day 14
[4] = 50 mg, 50 mg once daily, Day 14
[5] = 100 mg, 100 mg once daily, Day 1
[6] = 100 mg, 100 mg once daily, Day 14

COc1nn(C)cc1Nc1nccc(-c2c[nH]c3c(NC(=O)[C@@H](C)N4CCN(C)CC4)cccc23)n1 [golidocitinib, (2R)-N-[3-[2-[(3-Methoxy-1-methyl-pyrazol-4-yl)amino]pyrimidin-4-yl]-1H-indol-7-yl]-2-(4-methylpiperazin-1-yl)propenamide]
solubility (Solubility in vitro): high solubility | Cmax ([1]; 25 mg, 25 mg once daily, Day 1): 33.8 ng/mL | AUC(0-t) ([1]; 25 mg, 25 mg once daily, Day 1): 536 ng·h/mL | Tmax ([1]; 25 mg, 25 mg once daily, Day 1): 6 h | Cmax [1, 3]: 83.9 ng/mL | AUC(0-t) [1, 3]: 1530 ng·h/mL | Tmax [1, 3]: 6 h | Cmax ([1]; 50 mg, 50 mg once daily, Day 1): 62.1 ng/mL | AUC(0-t) ([1]; 50 mg, 50 mg once daily, Day 1): 1020 ng·h/mL | Tmax ([1]; 50 mg, 50 mg once daily, Day 1): 6 h | Cmax [1, 4]: 169 ng/mL | AUC(0-t) [1, 4]: 3190 ng·h/mL | Tmax [1, 4]: 6 h | Cmax [1, 5]: 149 ng/mL | AUC(0-t) [1, 5]: 2490 ng·h/mL | Tmax [1, 5]: 4 h | Cmax [1, 6]: 375 ng/mL | AUC(0-t) [1, 6]: 7190 ng·h/mL | Tmax [1, 6]: 6 h | increase of Cmax and AUC0-24hr on day 14 compared to day 1 (accumulation) ([1]; multiple once-daily dosing): 2-3 folds | time to steady-state plasma concentrations ([1]; once-daily dosing): ≤ 14 days | CLtotal ([2]; 25 mg once daily 14 days): 15.2 L/h | Fe0-t ([2]; 25 mg once daily 14 days): 20.9% | Ae0-t ([2]; 25 mg once daily 14 days, mean (SD)): 4.94 (1.23) mg | CLtotal ([2]; 50 mg once daily 14 days): 15.5 L/h | Fe0-t ([2]; 50 mg once daily 14 days): 23.9% | Ae0-t ([2]; 50 mg once daily 14 days, mean (SD)): 11.7 (1.69) mg | CLtotal ([2]; 100 mg once daily 14 days): 13.4 L/h | Fe0-t ([2]; 100 mg once daily 14 days): 20.2% | Ae0-t ([2]; 100 mg once daily 14 days, mean (SD)): 19.2 (4.11) mg | CL renal ([2]; urine and plasma, 25 mg once daily 14 days, Ae0-t/AUC0-t, mean (SD), read-out: CLr (converted)): 53 mL/min | CL renal ([2]; urine and plasma, 50 mg once daily 14 days, Ae0-t/AUC0-t, mean (SD), read-out: CLr (converted)): 61.5 mL/min | CL renal ([2]; urine and plasma, 100 mg once daily 14 days, Ae0-t/AUC0-t, mean (SD), read-out: CLr (converted)): 45.2 mL/min | CL renal ([2]; urine, US participants, 25 mg to 100 mg, read-out: mean renal clearance): 45.2 to 61.5 mL/min
